{"source": "patent US9695155B2", "about": "“Herbicidal substituted pyrimidinyloxy benzene compounds” (E. I. DU PONT DE NEMOURS AND COMPANY, priority 2013, dated 2017)", "key": {"large (Lg) crabgrass": {"tested_on": "large (Lg) crabgrass", "assay": "Test A preemergence", "format": "in vivo, Digitaria sanguinalis", "in_short": "(§1)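 Pre- and postemergence greenhouse screen. Soil: loam + sand. Spray carrier: solvent mixture, non-phytotoxic, with surfactant. Post timing at 1–2 leaves, height 2–10 cm. Readout: visual injury on a 0–100 scale roughly 10 days after application, untreated plants as reference.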"}, "velvetleaf [1]": {"tested_on": "velvetleaf", "assay": "Test A preemergence", "format": "in vivo, Abutilon theophrasti", "in_short": "as §1"}, "corn [2]": {"tested_on": "corn", "assay": "Test A preemergence", "format": "in vivo, Zea mays", "in_short": "as §1"}, "barnyardgrass": {"tested_on": "barnyardgrass", "assay": "Test A postemergence", "format": "in vivo, Echinochloa crus-galli", "conditions": "0 to 100 scale where 0 is no effect and 100 is complete control", "in_short": "as §1"}, "giant foxtail [3]": {"tested_on": "giant foxtail", "assay": "Test A postemergence", "format": "in vivo, Setaria faberii", "conditions": "0 to 100 scale where 0 is no effect and 100 is complete control", "in_short": "as §1"}, "morningglory [4]": {"tested_on": "morningglory", "assay": "Test A postemergence", "format": "in vivo, Ipomoea spp.", "conditions": "0 to 100 scale where 0 is no effect and 100 is complete control", "in_short": "as §1"}, "corn [5]": {"tested_on": "corn", "assay": "Test A postemergence", "format": "in vivo, Zea mays", "conditions": "0 to 100 scale where 0 is no effect and 100 is complete control", "in_short": "as §1"}, "Heteranthera limosa": {"tested_on": "Heteranthera limosa", "assay": "Test B flooded paddy test", "format": "in vivo", "conditions": "Flood, 250 g ai/ha; 0 to 100 scale where 0 is no effect and 100 is complete control", "in_short": "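Scores from 0 (no effect) to 100 (complete control) are visual comparisons with controls, taken 13 to 15 days after compound was applied into floodwater 3 cm deep around 2-leaf plants.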"}, "corn [6]": {"tested_on": "corn", "assay": "Test C postemergence", "format": "in vivo, Zea mays", "in_short": "(§2)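 Injury was assessed visually against controls 13 to 15 days after application, with 0 meaning no effect and 100 full control; missing entries are shown as a dash. Preemergence sprays hit seeded loam–sand soil, postemergence sprays hit 1- to 4-leaf plants.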"}, "giant foxtail [7]": {"tested_on": "giant foxtail", "assay": "Test C postemergence", "format": "in vivo, Setaria faberii", "in_short": "as §2"}, "johnsongrass": {"tested_on": "johnsongrass", "assay": "Test C postemergence", "format": "in vivo, Sorghum halepense", "in_short": "as §2"}, "morningglory [8]": {"tested_on": "morningglory", "assay": "Test C postemergence", "format": "in vivo, Ipomoea coccinea", "in_short": "as §2"}, "pigweed": {"tested_on": "pigweed", "assay": "Test C postemergence", "format": "in vivo, Amaranthus retroflexus", "in_short": "as §2"}, "oilseed rape": {"tested_on": "oilseed rape", "assay": "Test C postemergence", "format": "in vivo, Brassica napus", "in_short": "as §2"}, "waterhemp": {"tested_on": "waterhemp", "assay": "Test C postemergence", "format": "in vivo, Amaranthus rudis", "in_short": "as §2"}, "velvetleaf [9]": {"tested_on": "velvetleaf", "assay": "Test C postemergence", "format": "in vivo, Abutilon theophrasti", "in_short": "as §2"}, "[10]": {"conditions": "500 g ai/ha, 0 to 100 scale where 0 is no effect and 100 is complete control"}, "[11]": {"conditions": "16 g ai/ha, postemergence, 0 is no effect, 100 is complete control"}, "[12]": {"conditions": "31 g ai/ha, postemergence, visual rating, scale 0 to 100 (0 no effect, 100 complete control), 13 to 15 days"}, "[13]": {"conditions": "125 g ai/ha, postemergence, visual rating, scale 0 to 100 (0 no effect, 100 complete control)"}, "[14]": {"conditions": "Postemergence, 62 g ai/ha, scale 0 to 100 (0 no effect, 100 complete control), 13 to 15 days"}}}
{"smiles": "FC(F)c1cnn(-c2c(Br)cccc2Oc2ncc(Cl)cn2)c1", "note": "[Compound 232]", "values": [{"measurement": "Crabgrass, Large plant response rating (0 to 100 scale)", "setting": "large (Lg) crabgrass; 125 g ai/ha", "value": 90}, {"measurement": "Crabgrass, Large plant response rating", "setting": "large (Lg) crabgrass; [10]", "value": 100}, {"measurement": "Velvetleaf plant response rating (0 to 100 scale)", "setting": "velvetleaf [1]; 125 g ai/ha", "value": 20}, {"measurement": "Velvetleaf plant response rating", "setting": "velvetleaf [1]; [10]", "value": 100}, {"measurement": "Corn plant response rating (0 to 100 scale)", "setting": "corn [2]; 125 g ai/ha", "value": 0}, {"measurement": "Corn plant response rating", "setting": "corn [2]; [10]", "value": 60}, {"measurement": "Barnyardgrass plant response rating", "setting": "barnyardgrass; 125 g ai/ha", "value": 30}, {"measurement": "Plant response rating, Barnyardgrass", "setting": "barnyardgrass; 500 g ai/ha", "value": 90}, {"measurement": "Foxtail, Giant plant response rating", "setting": "giant foxtail [3]; 125 g ai/ha", "value": 70}, {"measurement": "Plant response rating, Foxtail, Giant", "setting": "giant foxtail [3]; 500 g ai/ha", "value": 90}, {"measurement": "Morningglory plant response rating", "setting": "morningglory [4]; 125 g ai/ha", "value": 80}, {"measurement": "Plant response rating, Morningglory", "setting": "morningglory [4]; 500 g ai/ha", "value": 90}, {"measurement": "Corn plant response rating", "setting": "corn [5]; 125 g ai/ha", "value": 30}, {"measurement": "Plant response rating, Corn", "setting": "corn [5]; 500 g ai/ha", "value": 90}, {"measurement": "Plant response rating, Ducksalad", "setting": "Heteranthera limosa", "value": 95}, {"measurement": "Plant response rating (0 to 100), Corn", "setting": "corn [6]; [11]", "value": 5}, {"measurement": "Corn plant response rating", "setting": "corn [6]; [12]", "value": 10}, {"measurement": "Plant response rating, Corn", "setting": "corn [6]; [13]", "value": 15}, {"measurement": "Plant response rating, Corn", "setting": "corn [6]; [14]", "value": 10}, {"measurement": "Plant response rating (0 to 100), Foxtail, Giant", "setting": "giant foxtail [7]; [11]", "value": 5}, {"measurement": "Foxtail, Giant plant response rating", "setting": "giant foxtail [7]; [12]", "value": 5}, {"measurement": "Plant response rating, Foxtail, Giant", "setting": "giant foxtail [7]; [13]", "value": 15}, {"measurement": "Plant response rating, Foxtail, Giant", "setting": "giant foxtail [7]; [14]", "value": 5}, {"measurement": "Plant response rating (0 to 100), Johnsongrass", "setting": "johnsongrass; [11]", "value": 0}, {"measurement": "Johnsongrass plant response rating", "setting": "johnsongrass; [12]", "value": 0}, {"measurement": "Plant response rating, Johnsongrass", "setting": "johnsongrass; [13]", "value": 5}, {"measurement": "Plant response rating, Johnsongrass", "setting": "johnsongrass; [14]", "value": 5}, {"measurement": "Plant response rating (0 to 100), Morningglory", "setting": "morningglory [8]; [11]", "value": 70}, {"measurement": "Morningglory plant response rating", "setting": "morningglory [8]; [12]", "value": 80}, {"measurement": "Plant response rating, Morningglory", "setting": "morningglory [8]; [13]", "value": 85}, {"measurement": "Plant response rating, Morningglory", "setting": "morningglory [8]; [14]", "value": 55}, {"measurement": "Plant response rating (0 to 100), Pigweed", "setting": "pigweed; [11]", "value": 60}, {"measurement": "Pigweed plant response rating", "setting": "pigweed; [12]", "value": 70}, {"measurement": "Plant response rating, Pigweed", "setting": "pigweed; [13]", "value": 85}, {"measurement": "Plant response rating, Pigweed", "setting": "pigweed; [14]", "value": 60}, {"measurement": "Plant response rating (0 to 100), Oilseed Rape", "setting": "oilseed rape; [11]", "value": 5}, {"measurement": "Oilseed Rape plant response rating", "setting": "oilseed rape; [12]", "value": 50}, {"measurement": "Plant response rating, Oilseed Rape", "setting": "oilseed rape; [13]", "value": 60}, {"measurement": "Plant response rating, Oilseed Rape", "setting": "oilseed rape; [14]", "value": 5}, {"measurement": "Plant response rating (0 to 100), Waterhemp", "setting": "waterhemp; [11]", "value": 65}, {"measurement": "Waterhemp plant response rating", "setting": "waterhemp; [12]", "value": 65}, {"measurement": "Plant response rating, Waterhemp", "setting": "waterhemp; [13]", "value": 85}, {"measurement": "Plant response rating, Waterhemp", "setting": "waterhemp; [14]", "value": 70}, {"measurement": "Plant response rating (0 to 100), Velvetleaf", "setting": "velvetleaf [9]; [11]", "value": 35}, {"measurement": "Velvetleaf plant response rating", "setting": "velvetleaf [9]; [12]", "value": 60}, {"measurement": "Plant response rating, Velvetleaf", "setting": "velvetleaf [9]; [13]", "value": 65}, {"measurement": "Plant response rating, Velvetleaf", "setting": "velvetleaf [9]; [14]", "value": 30}]}
